Read-outs that look alike come from different tables or passages of the source.
Assays:
H37Rv Mtb [1] = conditions: cited from earlier work
Mtb Dxr [2] = molecular target: T1, Mtb Dxr (Mycobacterium tuberculosis, UniProt P9WNS1); conditions: see also Supplementary Figure 1; cited from earlier work
H37Rv Mtb [3] = assay: Whole cell antitubercular activity; type: cell-based, Mycobacterium tuberculosis
Mtb Dxr [4] = molecular target: T1, Mtb Dxr; assay: Classical competition experiments; type: biochemical; conditions: double reciprocal plots

T1 sequence (P9WNS1 whole entry): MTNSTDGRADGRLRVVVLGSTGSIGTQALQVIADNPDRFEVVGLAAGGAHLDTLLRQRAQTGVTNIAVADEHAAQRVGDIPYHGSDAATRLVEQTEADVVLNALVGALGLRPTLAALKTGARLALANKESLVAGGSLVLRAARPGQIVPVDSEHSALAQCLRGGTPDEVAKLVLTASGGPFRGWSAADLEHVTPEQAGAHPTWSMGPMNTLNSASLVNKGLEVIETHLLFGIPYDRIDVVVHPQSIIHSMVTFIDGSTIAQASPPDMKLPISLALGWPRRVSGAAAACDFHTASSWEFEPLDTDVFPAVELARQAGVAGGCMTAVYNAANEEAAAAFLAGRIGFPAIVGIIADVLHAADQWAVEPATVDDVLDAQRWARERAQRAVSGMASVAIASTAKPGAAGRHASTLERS

SMILES | mode of inhibition with respect to DXP (Mtb Dxr [2]) | inhibition of Mtb growth (in words) (H37Rv Mtb [3]) | further results
O=CN(O)CCCP(=O)(O)O [Compound 1, Fosmidomycin] | competitive | do not inhibit Mtb | activity against Mtb (in words) (H37Rv Mtb [1]): inactive
CCOP(=O)(CCCN(O)C=O)OCC [Diethyl-1] | – | display measurable antitubercular activity | –
CC(=O)N(O)CCCP(=O)([O-])O.[Na+] [Compound 2, FR900098] | competitive | do not inhibit Mtb | mode of inhibition relative to NADPH (Mtb Dxr [2]): uncompetitive
O=C(CCCc1ccccc1)N(O)CCCP(=O)([O-])O.[Na+] [Compound 8] | – | do not inhibit Mtb | mode of inhibition with respect to DXP (Mtb Dxr [4]): competitive; mode of inhibition with respect to NADPH (Mtb Dxr [4]): noncompetitive
CCOP(=O)(CCCN(O)C(=O)CCCc1ccccc1)OCC [18b] | – | display measurable antitubercular activity | inhibition of Mtb growth (in words) (H37Rv Mtb [3]; listed as diethyl ester of 8): inhibits Mtb growth

Reference: paper PMC3731163 (MedChemComm, 2013)
